# Test results from patent publication US20040029843A1, “Rapidly disintegrating formulations for treating or preventing mucositis” (OraPharma, Inc., priority 2002, published 2004).
# Counter-ions that a name gives are not always drawn.
# System: mucositis induced by acute radiation exposure of the cheek pouch
# Test: Hamster cheek pouch model of radiation-induced oral mucositis, clinical scoring 0-5
# Type: in vivo, Hamsters
# Conditions: 0.1 ml of 0.1 mg/ml aqueous solution topically three times a day for 22 days; for reduction in the number of animal days with scores of 3 or more relative to the control group: 35 Gy on day 0; for mucositis scores versus placebo control group: 35 Gy on day 0, visual score 0-5
# Protocol: Hamsters were randomly assigned to treatment groups with eight (8) animals per group. Each group was treated either with a drug solution or a control, water.
# Animals were dosed three times a day for 22 days. The first dose was applied on day -1. Either a solution of the drug or water alone was applied in a volume of 0.1 ml three times per day.
# Mucositis was induced by acute radiation exposure of the check pouch. A single dose of radiation (35 Gy/dose) was administered to all animals on Day 0. Prior to irradiation, animals were anesthetized with an intraperiotoneal injection of sodium pentobarbital (80 mg/kg) and the left buccal pouch was everted, fixed and isolated using a lead shield.
# Beginning on day 6 and continuing every other day up to day 28, the cheek pouch was photographed. On days that photographs were taken, prior to the first dosing of the day, the animals were anesthetized using an inhalation anesthetic and the left cheek pouch of each animal was rinsed vigorously with sterile water to remove residual food debris or foreign contamination and blotted dry with a gauze sponge. The appearance of the cheek pouch was scored visually by comparison to a validated photographic scale, ranging from 0 for normal to 5 for severe ulceration (clinical scoring). In descriptive terms, this scale is defined as follows: […]
# 0 Pouch completely healthy. No erythema or vasodilatation
# 1 Light to […] erythema and vasodilatation. No erosion of mucosa
# 2 Severe erythema and vasodilatation. Erosion of superficial aspects of mucosa leaving denuded areas. Decreased stippling of mucosa
# 3 Formation of off-white ulcers in one or more places. Ulcers may have a yellow/gray color due to pseudomembrane formation. Cumulative size of ulcers up to ¼ of the pouch surface. Severe erythema and vasodilatation
# 4 Cumulative size of ulcers ¼ to ½ of the pouch surface. Loss of pliability. Severe erythema and vasodilatation
# 5 Virtually all of pouch is ulcerated. Loss of pliability (pouch can only partially be extracted from mouth).
# A score of 1-2 represents mild stage of the disease, whereas a score of 3-5 indicates moderate to severe mucositis.
Molecule,reduction in the number of animal days with scores of 3 or more relative to the control group,mucositis scores versus placebo control group
CN(C)[C@@H]1C(O)=C(C(N)=O)C(=O)[C@@]2(O)C(O)=C3C(=O)c4c(O)cccc4[C@@](C)(O)[C@H]3C[C@@H]12 [tetracycline hydrochloride],more than 75%,Significantly lower scores
meclocycline sulfosalicylate,more than 75%,Significantly lower scores
